Here are results for 24 molecules from PubChem BioAssay AID330 (DTP/NCI, 2004).

The test system of the assay is P388 leukemia ip, CD2F1 mice, survival T/C. As to the kind of experiment: NCI In Vivo Anticancer Drug Screen. Data for tumor model P388 Leukemia (intraperitoneal) in CD2F1 (CDF1) mice. The conditions noted are these: endpoint: median survival time, higher = longer survival. The procedure, abridged: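 Mice carrying the transplanted tumor received test compound or vehicle. Survival was recorded in each group, and the value is the treated-group measurement divided by that of the vehicle-treated control group.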

[1] abbreviates: dose: 50.0 mg/kg/injection, schedule: Q01DX005 (ip), vehicle: Klucel (hydroxypropylcellulose) (HPC).
The mark [2] stands for this setting: dose: 100.0 mg/kg/injection, schedule: Q01DX005 (ip), vehicle: Klucel (hydroxypropylcellulose) (HPC).
Setting [3] is: dose: 12.5 mg/kg/injection, schedule: Q01DX009 (ip), vehicle: saline.
The mark [4] stands for this setting: dose: 25.0 mg/kg/injection, schedule: Q01DX009 (ip), vehicle: saline.
[5] abbreviates: dose: 50.0 mg/kg/injection, schedule: Q01DX009 (ip), vehicle: saline.
Setting [6] is: dose: 100.0 mg/kg/injection, schedule: Q01DX009 (ip), vehicle: saline.
Setting [7] is: dose: 200.0 mg/kg/injection, schedule: Q01DX009 (ip), vehicle: saline.
Where [8] appears, read: dose: 50.0 mg/kg/injection, schedule: Q01DX005 (ip), vehicle: saline with Tween-80.
Setting [9] is: dose: 100.0 mg/kg/injection, schedule: Q01DX005 (ip), vehicle: saline with Tween-80.
[10] abbreviates: dose: 50.0 mg/kg/injection, schedule: Q01DX009 (ip), vehicle: Klucel (hydroxypropylcellulose) (HPC).
Where [11] appears, read: dose: 100.0 mg/kg/injection, schedule: Q01DX009 (ip), vehicle: Klucel (hydroxypropylcellulose) (HPC).
[12] abbreviates: dose: 60.0 mg/kg/injection, schedule: Q01DX005 (ip), vehicle: saline with Tween-80.
Setting [13] is: dose: 120.0 mg/kg/injection, schedule: Q01DX005 (ip), vehicle: saline with Tween-80.
The mark [14] stands for this setting: dose: 240.0 mg/kg/injection, schedule: Q01DX005 (ip), vehicle: saline with Tween-80.
The mark [15] stands for this setting: dose: 200.0 mg/kg/injection, schedule: Q01DX005 (ip), vehicle: saline with Tween-80.
Setting [16] is: dose: 100.0 mg/kg/injection, schedule: Q04DX003 (ip), vehicle: saline with Tween-80.
Setting [17] is: dose: 200.0 mg/kg/injection, schedule: Q04DX003 (ip), vehicle: saline with Tween-80.
Where [18] appears, read: dose: 400.0 mg/kg/injection, schedule: Q04DX003 (ip), vehicle: saline with Tween-80.

Values joined by “and” are separate entries in the source; they are usually repeats but may differ in a detail not shown here. Identical values can stand only once. Inconclusive results and toxic doses are left out.

Regarding `CC1=C/C(=N\SC(c2ccccc2)(c2ccccc2)c2ccccc2)CCC1`, the T/C is 94 % of control (dose: 100.0 mg/kg/injection, schedule: Q04DX002 (ip), vehicle: saline with Tween-80) and 95 % of control (dose: 200.0 mg/kg/injection, schedule: Q04DX002 (ip), vehicle: saline with Tween-80).

As to `Cc1nn(C(N)=S)c(C)c1N=Nc1ccc(F)cc1`, the T/C runs as follows: (dose: 25.0 mg/kg/injection, schedule: Q01DX005 (ip), vehicle: Klucel (hydroxypropylcellulose) (HPC)) 96 % of control; under setting [1], 102 % of control; under setting [2], 90 % of control.

As for `COCC(=O)Oc1ccc[nH]c1=O`, the T/C was 101 % of control and 113 % of control under setting [3]; 103 % of control and 107 % of control under setting [4]; 100 % of control and 106 % of control under setting [5]; 106 % of control and 113 % of control under setting [6]; 100 % of control and 103 % of control under setting [7].

As to `CS/C(C#N)=C(\C#N)SC`, the T/C is 115 % of control under setting [8] and 113 % of control under setting [9].

As to `Clc1cccc(Cl)c1CSc1nc2ccccc2n2cccc12`, the T/C is 102 % of control under setting [10]; 105 % of control under setting [11]; 105 % of control (dose: 200.0 mg/kg/injection, schedule: Q01DX009 (ip), vehicle: Klucel (hydroxypropylcellulose) (HPC)).

Regarding `C[C@@]12CCCC[C@@H]1N(CCN1CCCCC1)c1ccccc12`, the T/C reads like this: under setting [12], 95 % of control; under setting [13], 105 % of control; under setting [14], 98 % of control.

For `CC(C)C1OCC(CCl)O1` (stereo not drawn), the T/C is, setting by setting: under setting [8], 104 % of control; under setting [9], 100 % of control; under setting [15], 104 % of control.

For the molecule `CCN(CC)CCNc1ccc(C)c2sc3c(OC)cccc3c(=O)c12`, the T/C was 113 % of control (dose: 50.0 mg/kg/injection, schedule: Q01DX009 (ip), vehicle: saline with Tween-80); 100 % of control (dose: 100.0 mg/kg/injection, schedule: Q01DX009 (ip), vehicle: saline with Tween-80); 116 % of control (dose: 200.0 mg/kg/injection, schedule: Q01DX009 (ip), vehicle: saline with Tween-80).

On to `NC(=O)CCNC(=O)CCCNC(=O)CCC[c-]1[c-][c-][c-][c-]1.[Fe].[c-]1[c-][c-][cH-][c-]1`, for which the T/C runs as follows: (dose: 12.5 mg/kg/injection, schedule: Q01DX009 (ip), vehicle: distilled water + Tween-80) 111 % of control and 119 % of control; (dose: 25.0 mg/kg/injection, schedule: Q01DX009 (ip), vehicle: distilled water + Tween-80) 115 % of control; (dose: 100.0 mg/kg/injection, schedule: Q01DX009 (ip), vehicle: distilled water + Tween-80) 123 % of control.

As for `CC(N)C(=O)NC(CC(=O)O)C(=O)O` (stereo not drawn), the T/C runs as follows: under setting [3], 95 % of control; under setting [4], 86 % of control; under setting [5], 90 % of control; under setting [6], 94 % of control; under setting [7], 92 % of control.

On to `Cc1ccc(N=C=C(c2ccccc2)c2ccccc2)cc1`, for which the T/C is, setting by setting: under setting [10], 123 % of control; under setting [11], 119 % of control.

As to `CC(C)OC(=O)NC1CCC2CCCCC2C1` (stereo not drawn), the T/C by setting is: under setting [5], 102 % of control; under setting [6], 102 % of control; under setting [7], 100 % of control.

Regarding `O=P(c1ccccc1)(c1ccccc1)c1ccccc1.O=P(c1ccccc1)(c1ccccc1)c1ccccc1.O=S(=O)(O)O.[Fe]`, the T/C by setting is: (dose: 100.0 mg/kg/injection, schedule: Q04DX003 (ip), vehicle: Klucel (hydroxypropylcellulose) (HPC)) 93 % of control; (dose: 200.0 mg/kg/injection, schedule: Q04DX003 (ip), vehicle: Klucel (hydroxypropylcellulose) (HPC)) 89 % of control.

On to `Cc1cc(Cl)c2c(N(C)C)cccc2n1`, for which the T/C (dose: 50.0 mg/kg/injection, schedule: Q01DX009 (ip), vehicle: acid diluted with saline) is 106 % of control and the T/C (dose: 100.0 mg/kg/injection, schedule: Q01DX009 (ip), vehicle: acid diluted with saline) was 93 % of control.

On to `CCCCC(CC)COCCCNCC(=O)O` (stereo not drawn), for which the T/C reads like this: (dose: 60.0 mg/kg/injection, schedule: Q01DX005 (ip), vehicle: saline) 102 % of control; (dose: 120.0 mg/kg/injection, schedule: Q01DX005 (ip), vehicle: saline) 107 % of control.

Regarding `CC(C)Oc1ccc2c(c1)Sc1ccc(Cl)cc1N2`, the T/C under setting [16] was 100 % of control, the T/C under setting [17] is 100 % of control and the T/C under setting [18] is 100 % of control.

For `CCCCCCCCCCCC(=O)OC1CCC2(C)C(=CCC3C2CCC2(C)C(C(C)/C=C/C(CC)C(C)C)CCC32)C1` (stereo not drawn), the T/C was 102 % of control (dose: 100.0 mg/kg/injection, schedule: Q04DX003 (ip), vehicle: other) and 102 % of control (dose: 200.0 mg/kg/injection, schedule: Q04DX003 (ip), vehicle: other).

For the molecule `Cc1cc(Cl)ccc1NC(=O)Oc1ccc(C#N)cc1`, the T/C is, setting by setting: under setting [12], 90 % of control; under setting [13], 90 % of control; under setting [14], 90 % of control.

Consider `CC(N)=NC(C)C`, for which the T/C under setting [5] was 101 % of control, the T/C under setting [6] is 101 % of control and the T/C under setting [7] was 99 % of control.

Take `NC(C(=O)O)C(O)c1ccc2c(c1)OCO2` (stereo not drawn): the T/C is 100 % of control under setting [16], 100 % of control under setting [17] and 100 % of control under setting [18].

As for `CC1(C)NC(=O)[C@]2(C[C@@H](OC(=O)c3ccccc3)C=C2C=O)O1`, the T/C is 109 % of control (dose: 25.0 mg/kg/injection, schedule: Q01DX005 (ip), vehicle: saline with Tween-80) and 96 % of control under setting [8].

Take `COc1ccc(/C(CC2(O)C(=O)Nc3c(C)cc(Cl)cc32)=N\NC(=O)C(=O)NN)cc1` (stereo not drawn): the T/C under setting [8] was 106 % of control, the T/C under setting [9] was 98 % of control and the T/C under setting [15] is 96 % of control.

Take `CCCCN(CCCC)C1CCC(Nc2ccnc3cc(Cl)ccc23)CC1` (stereo not drawn): the T/C was 98 % of control under setting [1] and 95 % of control under setting [2].

With `COc1ccc(CCNCC(O)c2ccc(C)s2)cc1OC` (stereo not drawn), the T/C is 100 % of control under setting [3]; 86 % of control under setting [4]; 101 % of control and 86 % of control under setting [5]; 98 % of control under setting [6].
